From US20230210834A1, “RNA METHYLTRANSFERASE INHIBITOR, SCREENING METHOD THEREFOR, ANTI-CANCER AGENT EFFICACY ASSESSMENT MARKER, AND KIT FOR EFFECTIVELY PREDICTING FTSJ1 INHIBITOR” (National University Corporation Okayama University, priority 2019, published 2023) come the findings set out here.

Experiment [1] concerns YAP/TAZ. Briefly: Screening: YAP/TAZ activity reporter (8xGTIIC plasmid) assay in NUGC3 cells (luminescence % of DMSO). The experiment is classed as cell-based, human. The note with it: NUGC3 cells, luminescence relative to DMSO.
Experiment [2] has as its target T1, FTSJ1 (Homo sapiens, UniProt Q9UET6).
T1 construct: made in house; host or cells: HEK293 cells stably expressing FLAG-tagged FTSJ1
T1 sequence (Q9UET6 1-329): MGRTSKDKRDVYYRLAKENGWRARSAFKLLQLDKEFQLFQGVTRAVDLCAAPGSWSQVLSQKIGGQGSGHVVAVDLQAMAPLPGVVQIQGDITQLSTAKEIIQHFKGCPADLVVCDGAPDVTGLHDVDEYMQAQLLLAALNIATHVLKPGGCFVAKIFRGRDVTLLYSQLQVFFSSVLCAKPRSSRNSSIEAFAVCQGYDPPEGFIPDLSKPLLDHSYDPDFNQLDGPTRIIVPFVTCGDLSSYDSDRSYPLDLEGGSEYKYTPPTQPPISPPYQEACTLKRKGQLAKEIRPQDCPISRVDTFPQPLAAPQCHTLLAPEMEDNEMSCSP
The experiment in a line: Screening test: FLAG-FTSJ1 transmethylation of total RNA, SAM to SAH conversion measured with MTase-Glo luminescence. In kind it is biochemical. The note with it: 10 ng/reaction FLAG-FTSJ1, 1,000 ng/reaction total RNA, different concentrations; FIG. 3B. The method, then:
HEK293 human embryonic kidney cells that constantly express FLAG-tagged FTSJ1 were produced, and from its cell lysate, FLAG-FTSJ1 was separated by adsorption using an anti-FLAG M2 antibody affinity gel (Sigma-Aldrich Co. LLC, catalog number: A2220-10ML), and eluted with FLAG peptide (Sigma-Aldrich Co. LLC, catalog number: F3290-25MG). After measuring the protein concentration in the eluate, serial dilutions were performed within the range of 0 to 20 ng/reaction to obtain enzyme dilutions of 12 different concentrations. Further, the total RNA was extracted from HEK293-FTSJ1-KO cells, in which FTSJ1 was knocked out, using TRIzol Reagent (Thermo Fisher Scientific Inc., catalog number: 15596018). […] The conversion reaction from SAM (s-adenosyl methionine) to SAH (s-adenosyl homocysteine), which occurred when FLAG-FTSJ1 in each dilution methylated 1,000 ng/reaction of the total RNA, was measured as a luciferase luminescence value using MTase-Glo Reagent in the assay kit. Taking the luminescence value at the time when FLAG-FTSJ1 was 0 ng as a background value, a graph was drawn using the numerical values obtained by subtracting the background value from the luminescence value at each dilution step. […]

With `CC(C)c1cc(C(C)C)c(S(=O)(=O)CC2CC(C)(C)CC(C)(C)C2)c(C(C)C)c1` [PVZF2001], the “8×GTIIC” value in experiment [1] (5 μM) was found to be 40.38%; in experiment [1] (10 μM) it was 20.02%. Also, in experiment [2], the “inhibitory effect of transmethylation by FTSJ1 (luminescence value)” value is listed as “a decrease in the luminescence value was observed in a concentration-dependent manner”.
